Key:
Assay in all cases: relative viability (nuclei count vs DMSO), 5 days (fraction); higher = more cells survive
[1] = compound: Cn1c(=O)n(-c2ccc(C(C)(C)C#N)cc2)c2c3cc(-c4cnc5ccccc5c4)ccc3ncc21 [Dactolisib] + CC(=O)c1c(C)c2cnc(Nc3ccc(N4CCNCC4)cn3)nc2n(C2CCCC2)c1=O [Palbociclib] (partner 0.5 µM)
How it was run: (§1)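 Lung cancer cell lines in 1536-well plates were dosed by pin tool the day after seeding, either with one drug alone or with a fixed anchor-drug dose plus five library-drug doses (not always all listed) in √10 steps. After 5 days, cells were fixed and their nuclei stained in one step (final 0.05% Triton X-100, 1% formaldehyde, 1 ug/ml Hoechst), then counted on 4× images. Relative viability is the nuclei count in treated wells divided by that in vehicle wells. Values are medians of duplicate plates.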

[2] = compound: Cn1c(=O)n(-c2ccc(C(C)(C)C#N)cc2)c2c3cc(-c4cnc5ccccc5c4)ccc3ncc21 [Dactolisib] + CC(=O)Nc1cccc(-n2c(=O)n(C3CC3)c(=O)c3c(Nc4ccc(I)cc4F)n(C)c(=O)c(C)c32)c1 [Trametinib] (partner 0.02 µM)
How it was run: as §1

[3] = compound: Cn1c(=O)n(-c2ccc(C(C)(C)C#N)cc2)c2c3cc(-c4cnc5ccccc5c4)ccc3ncc21 [Dactolisib] + O=C(CCCCCCC(=O)Nc1ccccc1)NO [Vorinostat] (partner 1 µM)
How it was run: as §1

[4] = compound: C1CCC(CC1)N(CCNCCC2=C3C(=C(C=C2)O)NC(=O)CO3)C(=O)CCNCCC4=CC(=C(C=C4)Cl)Cl [AZ505] + C[C@@H](Oc1cc(-c2cnn(C3CCNCC3)c2)cnc1N)c1c(Cl)ccc(F)c1Cl [Crizotinib] (partner 1 µM)
How it was run: as §1

For UMC-11, which relative viability ([1]; first compound 0.002 µM) is on record?
Its relative viability is 0.331.

And the relative viability ([1]; first compound 0.006325 µM)?
Its relative viability is 0.311.

And the relative viability ([1]; first compound 0.02 µM)?
Its relative viability is 0.344.

What about the relative viability ([1]; first compound 0.06325 µM) of the same cell line?
The relative viability was 0.318.

And the relative viability ([1]; first compound 0.2 µM)?
Its relative viability is 0.305.

And the relative viability ([2]; first compound 0.002 µM)?
The relative viability was 0.642.

What about the relative viability ([2]; first compound 0.006325 µM) of the same cell line?
The relative viability was 0.637.

And the relative viability ([2]; first compound 0.02 µM)?
The relative viability was 0.578.

And the relative viability ([2]; first compound 0.06325 µM)?
The relative viability was 0.282.

And the relative viability ([2]; first compound 0.2 µM)?
Its relative viability is 0.2.

And the relative viability ([3]; first compound 0.002 µM)?
The relative viability was 0.407.

What about the relative viability ([3]; first compound 0.006325 µM) of the same cell line?
Its relative viability is 0.392.

And the relative viability ([3]; first compound 0.02 µM)?
Its relative viability is 0.245.

What about the relative viability ([3]; first compound 0.06325 µM) of the same cell line?
Its relative viability is 0.235.

And the relative viability ([3]; first compound 0.2 µM)?
The relative viability was 0.175.

And the relative viability ([4]; first compound 0.08 µM)?
The relative viability was 0.537.

What about the relative viability ([4]; first compound 0.253 µM) of the same cell line?
Its relative viability is 0.588.

And the relative viability ([4]; first compound 0.8 µM)?
The relative viability was 0.639.

And the relative viability ([4]; first compound 2.53 µM)?
Its relative viability is 0.709.

And the relative viability ([4]; first compound 8 µM)?
Its relative viability is 0.573.
